Results as given in US7176217B2, “Azabicyclo compound matrix metalloprotease inhibitor and skin preparation” (Shiseido Co., Ltd., priority 2001, dated 2007).

Target: T1, MMP-9 (crude enzyme solution derived from a mouse skin) (Mus musculus, UniProt P41245)
T1 construct: crude enzyme solution derived from a mouse skin; from tissue; host or cells: mouse skin
Test: Gelatinase group MMPs inhibition test (gelatin zymography)
Assay type: biochemical
Design: key: ⊚: The band disappeared.; ◯: The band was slightly confirmed.; Δ: The band became narrower than control.; X: Unchanged
Conditions: sample solution 100 μM; gel incubated overnight; size of MMP-9 band compared with control solution
Protocol: A test material was dissolved in dimethyl sulfoxide (DMSO) to the concentration of 10 mM, to prepare a stock solution. The stock solution was diluted with a measuring buffer (0.05M tris at pH 7.5 containing 0.2M NaCl and 5 mM CaCl2) to adjust the concentration to 100 μM, which was used as a sample solution. As a control solution, a solution containing no test material was similarly prepared.
As a gelatinase group enzyme, MMP-9 (crude enzyme solution derived from a mouse skin) was used. The test was performed according to a gelatin zymography method (“Bio-antioxidant provitamin C”, Nobuhiko Miwa ed., p. 76, 1999, Fragrance Journal, Tokyo).
That is, a gel containing gelatin in which a predetermined amount of the crude enzyme solution had been subjected to electrophoresis in advance, was incubated overnight with a sample solution or a control solution. After the gel was stained, the appearing band corresponding to MMP-9 was evaluated by a decrease when its size compared with that of a band of control solution. Evaluation criteria was as follows: • ⊚: The band disappeared. • ◯: The band was slightly confirmed. • Δ: The band became narrower than control. • X: Unchanged.

T1 sequence (P41245 108-730): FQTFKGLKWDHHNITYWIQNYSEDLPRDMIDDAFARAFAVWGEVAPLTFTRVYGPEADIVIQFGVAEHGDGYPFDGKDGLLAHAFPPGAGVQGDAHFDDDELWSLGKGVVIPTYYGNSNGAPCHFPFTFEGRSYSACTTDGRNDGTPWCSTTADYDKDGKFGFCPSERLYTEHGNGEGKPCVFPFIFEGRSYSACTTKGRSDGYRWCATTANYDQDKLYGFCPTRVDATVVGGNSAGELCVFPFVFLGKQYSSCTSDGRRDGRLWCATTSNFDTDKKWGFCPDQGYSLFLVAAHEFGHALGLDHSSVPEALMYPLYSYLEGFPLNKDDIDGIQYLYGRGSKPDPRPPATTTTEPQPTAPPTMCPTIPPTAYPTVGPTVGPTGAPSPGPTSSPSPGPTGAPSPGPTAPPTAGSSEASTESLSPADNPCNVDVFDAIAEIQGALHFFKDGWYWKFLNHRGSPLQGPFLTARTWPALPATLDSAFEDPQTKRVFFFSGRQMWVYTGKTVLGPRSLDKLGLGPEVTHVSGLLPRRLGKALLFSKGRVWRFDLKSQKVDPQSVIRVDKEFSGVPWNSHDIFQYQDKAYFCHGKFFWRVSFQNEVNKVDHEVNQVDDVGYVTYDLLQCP

MMPs Inhibition | Structure (SMILES)
◯ | O=C(NO)[C@H]1[C@@H]2CC[C@@H](C2)N1S(=O)(=O)c1ccc(F)cc1 [Compound 13, (1S, 3R, 4R)-2-[(4-Fluorophenyl)sulfonyl]-N-hydroxy-2-azabicyclo[2.2.1]heptane-3-carboxamide]
◯~⊚ | COc1ccc(S(=O)(=O)N2[C@H]3CC[C@H](C3)[C@@H]2C(=O)NO)cc1 [Compound 3, (1S, 3R, 4R)—N-Hydroxy-2-[(4-methoxyphenyl)sulfonyl]-2-azabicyclo[2.2.1]heptane-3-carboxamide]
◯~⊚ | COc1ccc(S(=O)(=O)N2C3CCC(CC3)[C@@H]2C(=O)NO)cc1 [Compound 7, (3R)—N-Hydroxy-2-[(4-methoxyphenyl)sulfonyl]-2-azabicyclo[2.2.2]octane-3-carboxamide]
◯ | O=C(NO)[C@H]1[C@@H]2CC[C@@H](C2)N1S(=O)(=O)c1ccc(Cl)cc1 [Compound 9, (1S, 3R, 4R)-2-[(4-Chlorophenyl)sulfonyl]-N-hydroxy-2-azabicyclo[2.2.1]heptane-3-carboxamide]
◯ | COc1ccc(S(=O)(=O)N2[C@@H]3CC(C(C)(C)C)[C@H](C3)[C@@H]2C(=O)NO)cc1 (stereo partly drawn) [Compound 14, 5-(tert-Butyl)-(1R, 3R, 4S)—N-hydroxy-2-[(4-methoxyphenyl)sulfonyl]-2-azabicyclo[2.2.1]heptane-3-carboxamide]
◯~⊚ | COc1ccc(S(=O)(=O)N2C3CCC(C3)C2C(=O)NO)cc1 (centres unmarked) [Compound 1, N-Hydroxy-2-[(4-methoxyphenyl)sulfonyl]-2-azabicyclo[2.2.1]heptane-3-carboxamide]
◯ | O=C(NO)[C@H]1[C@@H]2CC[C@@H](C2)N1S(=O)(=O)c1ccccc1 [Compound 8, (1S, 3R, 4R)—N-Hydroxy-2-(phenylsulfonyl)-2-azabicyclo[2.2.1]heptane-3-carboxamide]

Structure (SMILES) | MMPs Inhibition
CCCCOc1ccc(S(=O)(=O)N2[C@H]3CCC(C3)[C@@H]2C(=O)NO)cc1 [Compound 12, (1S, 3R, 4R)-2-[4-(Butoxyphenyl)sulfonyl]-N-hydroxy-2-azabicyclo[2.2.1]heptane-3-carboxamide] | ⊚
